{"source": "paper PMC13327620", "about": "“A Deep‐Red‐Absorbing Osmium(II) Complex as a Photosensitizer for Photodynamic Therapy Inducing Immunogenic Cell Death” (Angewandte Chemie (International Ed. in English), 2026)", "key": {"[1]": {"system": "mouse fibrosarcoma (MCA205) cells", "test": "Resazurin cell viability assay, phototoxicity", "format": "cell-based", "settings": "MCA-205, light or radiation study, 1 h, MCA205, 740 nm, 60 min, 12.60 J/cm2", "protocol": "(§1) (100 U ml−1), streptomycin (100 U ml−1), and 1% L-glutamine. The murine fibrosarcom a (MCA205) cells were cultured in RPMI 1640 medium with 10% fetal bovine serum (FBS), penicillin (100 U ml−1), streptomycin (100 U ml−1), and 1% L-glutamine. All cells were incubated at 37 °C in a humidified atmosphere with 5 % CO2.\n(§2) Normoxia. The in vitro viability of cells exposed to the complexes was determined using a resazurin assay. C ells were seeded in 96-well plates at densities of 4,000 cells/well for CT26, MC A205 and U-87 MG cells, and 8,000 cells/well for MRC-5 and NIH/3T3 cells. A fter 24 h of growth at 37 °C wit h 5% CO2, the medium was replaced with fresh medium containing various concentrations of the compounds . Following a 4- h incubation in the dark, the medium was refres hed , and the plates were exposed to irradiation usinga LUM OS -BIO photoreactor (At las Photonics).N on- ir rad iated plates were similarly refr eshed with medium and kept in the dark for the same duration. After a 40- h r ecov ery period, a f reshly pr epar ed resazurin solution (0.2 mg/mL) was added to each well, and the plates were left in the dark for 4 h before analysis on a B i o Te k Cytation 5 Cell Imaging Multimode Reader (Agil ent Technologies). […]"}, "[2]": {"system": "mouse colon adenocarcinoma (CT-26) cells", "test": "Resazurin cell viability assay, (photo)cytotoxicity under hypoxia (1% O2)", "format": "cell-based", "protocol": "as §1\nas §2, with “Following a 4- h incubation in the dark, the medium was refres hed , and the plates were exposed to irradiation usinga LUM OS -BIO photoreactor (At las Photonics).N on- ir rad iated plates were similarly refr eshed with medium and kept in the dark for the same duration.” left out\nNon-irradiat ed plates were similarly refreshed with medium and k ept in th e d ark fo r the same duration. After a 40 -h recovery period, a f res hly prepar ed resazurin solution (0.2 mg/mL) was added to each well, and the plates were left in the dark for 4 h before analysis on a BioTek Cytation 5 Cell Imaging Multimode Reader (Agilent […]"}}, "note": "Where two headings read alike, the source gives them in different places."}
{"compound": "C=Cc1c(C)c2cc3nc(c(CC(=O)O)c4[nH]c(cc5nc(cc1[nH]2)C(C)=C5CC)c(C)c4C(=O)O)[C@@H](CCC(=O)O)[C@@H]3C", "note": "[Ce6, chlorin e6]", "values": [{"measurement": "IC50", "setting": "[1]", "value": "1.77 ± 0.38", "unit": "µM"}, {"measurement": "IC50", "setting": "[2]; CT26, CT-26, hypoxia (1% O2), dark, read-out: IC50 Dark", "value": "> 100", "unit": "µM"}, {"measurement": "IC50", "setting": "[2]; CT26, light or radiation study, 1 h, CT-26, hypoxia (1% O2), 740 nm, 60 min, 12.60 J/cm2, read-out: IC50 740 nm", "value": "5.63 ± 0.41", "unit": "µM"}]}
